Measurements as given in patent US7884120B2, “2,4,5-trisubstituted imidazoles and their use as anti-microbial agents” (Lorus Therapeutics Inc., priority 2002, dated 2011).
Values after ≈ are worked out from the molar mass of the structure shown. Where two headings read alike, the source gives them in different places.

Key:
[1] = system: Staphylococcus epidermidis (ATCC-35983); assay: MIC by microdilution against Staphylococcus epidermidis; assay type: cell-based; conditions: unit not given in Table 4 (Table 3, same method: μg/ml)
Protocol: (§1) A standard microdilution method (NCCLS, 2000; Document M7-A5) was used to determine the minimum inhibitory concentrations (MICs) against S. aureus, methicillin-resistant strains (MRSA); 1A-218, 1A-318, 1B-374, 1B-315, 1B-185, 1B387 (Simor et al. 1999 Can Commun Dis Rep; 25:105-108) and methicillin-sensitive strains (MSSA); ATCC-6538 and ATCC-29213. The MICs of some compounds were also determined against other Gram-positive bacteria: Enterococcus faecium (ATCC 51559), Enterococcus faecalis (ATCC-51299, ATCC-29212) and Staphylococcus epidermidis (ATCC-35983).
(§2) Mueller-Hinton broth (MHB) is recommended as the medium of choice for susceptibility testing of commonly isolated, rapidly growing aerobic organisms such as the Gram-positive bacteria included in this study. A “cation-adjusted Mueller-Hinton broth” (Ca-MHB) was prepared by first preparing standard MHB from a dehydrated base as recommended by the manufacturer.
(§3) Single colonies from fresh agar plates of the different bacterial cultures were sub-cultured overnight in 3 ml of Tryptic soy broth (TSB) at 37° C. with shaking at 250 RPM. After 18-20 hours of incubation, the absorbance at λ=600 nm (OD600) were determined for each culture and adjusted to a final OD600=0.1 (4.2×10^7 cfu/ml). Bacterial suspensions were then diluted 1:200 in sterile Ca-MHB for the in vitro susceptibility test, with each well of the microtitre plate containing approximately 2×10^5 cfu/ml.
(§4) Stock solutions of the different test compounds were prepared at concentrations of 1,280 μg/ml, 640 μg/ml, or 320 μg/ml in 50% DMSO (dimethyl sulfoxide). Serial two-fold dilutions were then prepared in 50% DMSO (the working concentrations were 1:10 of the stock concentrations in 100 μl culture suspensions). The filled microtitre plates were sealed in plastic bags and incubated at 35° C. for 24 hr in an ambient air incubator with shaking at 250 RPM. MIC values were determined as the lowest concentration where complete inhibition of the visible bacterial growth was observed by the unaided eye and confirmed by the measurement of the optical density (OD600).

[2] = system: Enterococcus faecium (ATCC-51559); assay: MIC by microdilution against Enterococcus faecium; assay type: cell-based; conditions: unit not given in Table 4 (Table 3, same method: μg/ml)
Protocol: as §1, §2, §3, §4

[3] = system: Methicillin-Resistant Staphylococcus aureus (MRSA), CMRSA-1B; assay: MIC by sequential macrodilution (tube) broth method against MRSA; assay type: cell-based; set-up: key: (+): Positive visual bacterial growth; (−): Negative visual bacterial growth; conditions: 37° C. overnight
Protocol: (Nat. Committee for Clinical Laboratory Standards. Document M7-A5 2000, 20; 1-25). Bacterial suspensions containing 5×10^5 colony-forming units (CFU) were incubated with serial two-fold dilutions of each drug at 37° C. overnight, and growth was monitored visually. The range of MIC values among the triaryl-imidazole derivatives was 12.5-50 μg/ml.

MRSA-1B387 = assay: In vivo inhibition of MRSA, acute infection in immunosuppressed CB17-SCID mice; set-up: species or system Staphylococcus aureus; conditions: 5×10^6 MRSA-1B387 in 5% mucin, 50 mg/kg I.P. immediately and 3 hours after inoculation
Protocol: Triaryl-imidazole compounds were tested in vivo for antibacterial activity against MRSA in a model of acute infection using immunosuppressed mice. Suspensions of 400 μL containing 5×10^6 MRSA-1B387 bacteria in 5% mucin were injected into groups of 5-10 female, 8-14 weeks CB17-SCID mice. Under these conditions bacterial infection produced 80-100% lethality in less than 48 hours. Each group of inoculated mice was treated with 50 mg/kg of the respective compound intraperitoneally (I.P.) immediately and 3 hours after bacterial inoculation.

[4] = system: S. aureus, MRSA 1A-218, 1A-318, 1B-374, 1B-315, 1B-185, 1B387 and MSSA ATCC-6538, ATCC-29213; assay: MIC by standard microdilution method against S. aureus (MRSA and MSSA strains); assay type: cell-based; conditions: Staphylococcus aureus
Protocol: as §1, §2, §3, §4

[5] = assay type: in vivo; conditions: mice; injected 200 mg/kg per day
Protocol: In vivo acute toxicity tests were conducted using compounds 1, 2, 3 and 4. Mice were injected with each of the above compounds at a concentration of 200 mg/kg per day.

[6] = system: Enterococcus faecalis (ATCC-29212); assay: MIC by microdilution against Enterococcus faecalis ATCC-29212; assay type: cell-based; conditions: unit not given in Table 4 (Table 3, same method: μg/ml)
Protocol: as §1, §2, §3, §4

[7] = system: Enterococcus faecalis (ATCC-51299); assay: MIC by microdilution against Enterococcus faecalis ATCC-51299; assay type: cell-based; conditions: unit not given in Table 4 (Table 3, same method: μg/ml)
Protocol: as §1, §2, §3, §4

[8] = system: multi-drug resistant Staphylococcus aureus (CMRSA-1B); assay: Bactericidal effect against MRSA (CFU plating on TSA); assay type: cell-based; conditions: overnight with compound, plated on TSA, CFU count (FIG. 1)
Protocol: Serial dilutions of liquid cultures were incubated with the compounds at 37° C. overnight and then plated on Tryptic Soy Agar (TSA) plates. After incubation for 17 hours at 37° C., the number of live bacteria was calculated from the number of colonies grown per milliliter of culture and expressed as colony-forming units (CFU).

MRSA 1B-387 [9] = assay: In vivo anti-bacterial activity, ICR mice inoculated I.P. with MRSA, oral treatment; conditions: Staphylococcus aureus
Protocol: For in vivo studies, groups of 5-10 female ICR mice (6-7 weeks) were inoculated intraperitonially with 3-8×10^7 CFU MRSA 1B-387 per mouse in 400 μl of 5% mucin. The test compounds at concentrations of 50 or 100 mg/kg were administered orally immediately after the bacterial inoculation and again 3 hours later. The selected dosages were administered twice daily throughout the experiment. The efficacy of the treatment was evaluated by comparison of mortality between the experimental and control groups (Table 5).

[10] = system: Candida albicans (ATCC 24433); assay: In vitro anti-fungal activity, microdilution against Candida albicans; assay type: cell-based; conditions: ATCC24433, C. albicans ATCC 24433, compound 25 μg/ml
Protocol: A microdilution method was used to determine the anti-fungal activity of different test compounds against Candida albicans (ATCC 24433) at 25 μg/ml. RPMI-1640 broth is recommended as the medium of choice for susceptibility testing of C. albicans (NCCLS, 2002; Document M27-A2) and was used in this study. The broth was buffered to pH 7.0 and then sterilized using a 250 ml vacuum driven disposable 0.45 um filtration system.
C. albicans was sub-cultured from a −80° C. stock onto Sabouraud dextrose agar and incubated for 24-48 hrs at 37° C. The fungi inoculum was prepared by picking five colonies of ˜1 mm in diameter from 24-48 hr old cultures. The colonies were then suspended in 5 ml of sterile normal saline (8.5 g/L NaCl; 0.85% saline) diluted 1:50 and further diluted 1:20 with medium to obtain two-fold inoculum (1-5×10^3 cfu/ml). […] The microtitre plates were then sealed in plastic bags and incubated at 35° C. for 24-48 hrs in an ambient air incubator with shaking at 250 RPM.
Inhibition of visible growth of C. albicans in the microtitre plate wells was assessed by the unaided eye and confirmed by OD600 reading. […] The MIC values of compounds with significant activity are also included.

MRSA 1B-387 [11] = assay: In vivo anti-bacterial activity, ICR mice inoculated I.P. with MRSA, oral treatment; conditions: Staphylococcus aureus; remark: listed apart in the source
[12] = against all 8 strains of S. aureus tested except where indicated, microdilution, Ca-MHB, 35° C., 24 hr, read-out: MIC

| Compound | MIC [1] | MIC [2] | Survival (%) (MRSA-1B387) | MIC [4, 12] | MIC [6] | MIC [7] | responders at 100 mg/kg (MRSA 1B-387 [9]) | responders at 100 mg/kg (MRSA 1B-387 [9]; read-out: Survival %) | melting point | also measured |
| --- | --- | --- | --- | --- | --- | --- | --- | --- | --- | --- |
| Cc1[nH]c2ccccc2c1-c1nc(-c2ccccc2)c(-c2ccccc2)[nH]1 [Compound 2] | 16 | 16 | 80% | 8 to 16 µg/mL (≈ 22.9 to 45.8 µM) | 16 | 16 |  |  |  | visual bacterial growth ([3]; Conc. 3.12 μg/ml): +; visual bacterial growth ([3]; Conc. 6.25 μg/ml): +; visual bacterial growth ([3]; Conc. 12.50 μg/ml): −; visual bacterial growth ([3]; Conc. 25.00 μg/ml): −; visual bacterial growth ([3]; Conc. 50.00 μg/ml): −; visual bacterial growth ([3]; Conc. 100.00 μg/ml): −; acute toxicity (symptoms of sickness, total weight, organ weight and appearance) [5]: no toxic effects; bactericidal or bacteriostatic effect at the corresponding MIC [8]: bactericidal effect |
| Cc1[nH]c2ccccc2c1-c1nc(-c2ccc(Br)cc2)c(-c2ccc(Br)cc2)[nH]1 [Compound 13] |  | 32 |  | 2 to 4 µg/mL (≈ 3.94 to 7.89 µM) |  | 32 | 20% | 20% |  | inhibition at 25 µg/mL ([10]; 24 h, read-out: Inhibition (%) after 24 h): 0%; inhibition at 25 µg/mL ([10]; 48 h, read-out: Inhibition (%) after 48 h): 0% |
| Cc1[nH]c2ccccc2c1-c1nc(-c2ccc(Cl)cc2)c(-c2ccc(Cl)cc2)[nH]1 [Compound 19] | 4 | 8 |  | 4 µg/mL (≈ 9.56 µM) | 8 | 8 |  |  | 165 to 167 °C |  |
| Brc1ccc2[nH]cc(-c3nc(-c4ccc(-c5ccccc5)cc4)c(-c4ccc(-c5ccccc5)cc4)[nH]3)c2c1 [Compound 41] |  |  |  | > 128 µg/mL |  |  |  |  | 155 to 158 °C |  |
| Brc1ccc2[nH]cc(-c3nc4c5ccccc5c5ccccc5c4[nH]3)c2c1 [Compound 45] |  |  |  |  |  |  | 10% | 20% |  | MIC ([4]; 24 h): 0.5 µg/mL (≈ 1.21 µM); responders at 200 mg/kg (MRSA 1B-387 [11]): 40%; responders at 200 mg/kg (MRSA 1B-387 [11]; read-out: Survival %): 40% |
| CN[C@H](CC(C)C)C(=O)N[C@H]1C(=O)N[C@@H](CC(N)=O)C(=O)N[C@H]2C(=O)N[C@H]3C(=O)N[C@H](C(=O)N[C@H](C(=O)O)c4cc(O)cc(O)c4-c4cc3ccc4O)[C@H](O)c3ccc(c(Cl)c3)Oc3cc2cc(c3O[C@@H]2O[C@H](CO)[C@@H](O)[C@H](O)[C@H]2O[C@H]2C[C@](C)(N)[C@H](O)[C@H](C)O2)Oc2ccc(cc2Cl)[C@H]1O [Vancomycin, reference compound] | 2 | >128 | 100% |  | 4 | 32 |  |  |  |  |
